Reference: patent US5607926A, “Cephalosporin antibiotics” (Microcide Pharmaceuticals, Inc., priority 1995, dated 1997)
Converted amounts (≈) assume the structure as drawn. Like-named read-outs stand apart in the source and are kept apart here.

Legend:
[1] = test system: S. aureus ATCC 29213; assay: In vitro antibacterial evaluation, MIC by agar dilution, S. aureus ATCC 29213; assay type: cell-based; conditions: Staphylococcus aureus, ATCC29213
How it was run: (§1)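 NCCLS agar dilution; Mueller-Hinton agar, 2-fold series 128 to ≤0.25 μg/mL, duplicates. Inoculum ~10^4 cfu/spot from 4-6 h log-phase broth culture. 35°-36° C, 16-20 h; MIC = lowest concentration with no growth.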

[2] = test system: S. epidermidis ATCC 31432; assay: In vitro antibacterial evaluation, MIC by agar dilution, S. epidermidis ATCC 31432; assay type: cell-based; conditions: Staphylococcus epidermidis, ATCC31432
How it was run: as §1

[3] = test system: S. aureus 76 (Meth^R)(lac^+); assay: In vitro antibacterial evaluation, MIC by agar dilution, S. aureus 76; assay type: cell-based; conditions: Staphylococcus aureus, read-out: MIC
How it was run: as §1

[4] = test system: S. aureus Col8A (Meth^S)(lac^-); assay: In vitro antibacterial evaluation, MIC by agar dilution, S. aureus Col8A; assay type: cell-based; conditions: Staphylococcus aureus
How it was run: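 Log-phase isolates were spot-inoculated at about 10^4 cfu onto Mueller-Hinton agar carrying duplicate two-fold compound levels, 128 μg/mL to ≤0.25 μg/mL, following NCCLS (1991). Plates were read after 16-20 h at 35°-36° C. The lowest growth-inhibiting concentration gave the MIC (μg/ml).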

[5] = test system: S. haemolyticus (Meth^R); assay: In vitro antibacterial evaluation, MIC by agar dilution, S. haemolyticus; assay type: cell-based; conditions: Staphylococcus haemolyticus, read-out: MIC
How it was run: as §1

[6] = test system: E. faecium ATCC 35667; assay: In vitro antibacterial evaluation, MIC by agar dilution, E. faecium ATCC 35667; assay type: cell-based; conditions: Enterococcus faecium, ATCC35667, read-out: MIC
How it was run: as §1

[7] = test system: E. coli ATCC 25922; assay: In vitro antibacterial evaluation, MIC by agar dilution, E. coli ATCC 25922; assay type: cell-based; conditions: Escherichia coli, ATCC25922, read-out: MIC
How it was run: as §1

[8] = test system: methicillinsusceptible S. aureus strain ATCC 13709; assay: In vivo antibacterial evaluation, murine model for lethal bacteremic peritonitis; set-up: species or system S. aureus in female Swiss-Webster mice; conditions: Staphylococcus aureus, ATCC13709, sc, 72 h, two equal SC doses at challenge and 2 hours later, mice, probit, read-out: ED50
Experimental: Groups of 5 female Swiss-Webster mice (Simonsen, Gilroy, Calif.) each are challenged by the intraperitoneal (IP) route with ten-fold increments of a bacterial inoculum. This permits calculation of the mean lethal dose (LD50) and the LD100. For preliminary evaluation of a new antibiotic, mice are challenged IP with an LD100 titer of bacteria. In two equal doses administered at the time of bacterial challenge and 2 hours later, groups of 10 mice each are treated subcutaneously with two-fold increments of the test drug and an antibiotic of known efficacy in mice and humans (i.e., positive control). Mice are observed for 72 h. Those alive at 72 h are considered long term survivors. The total drug dose in mg/kg that protects 50% of mice in a group from death is termed the mean protective dose (PD50). PD50 s are similarly determined for several pathogens. The quantitative endpoints for the new drug are then compared with those obtained with reference antibiotics.
Six ten-fold dilutions of inoculum suspended in 0.5 mL of sterilized 7% hog gastric mucin (Sigma) are injected IP in groups of 5 mice each. A control group of 5 mice receive mucin alone. Mice are observed for 72 h. Those alive at 72 h are considered long term survivors. The mean lethal dose (LD50) and 100% lethal dose (LD100) are determined by the probit test.
For antibiotic efficacy studies, mice are challenged IP with bacterial titers that will afford an LD100 for the test strain. In two equal doses administered at the time of bacterial challenge and 2 hours later, groups of 10 mice each are treated by the subcutaneous route (SC) with twofold increments of the test antibiotic; another group is treated similarly with a reference antibiotic of known efficacy in animals and man. Drug doses can range from 0.01 to 512 mg/kg. If the drug is poorly soluble, Tween 20 or propylene glycol will be employed to solubilize the drug. Animals are observed for 72 h. The 50% protective dose (PD50) is calculated in mg/kg by the probit method. The PD50 is the same as the 50% effective dose (ED50) and the 50% curative dose (CD50). Samples of blood from the hearts of all animals that die and from half the mice that survive are cultured on brain-heart infusion agar. Animals that received a protective dosage of the test drug will be alive at 72 h, although they may appear moderately ill to very ill during the observation period. […] Most of these mice will die within 6 to 48 h. Those alive at 72 h will be considered long term survivors.
(§2) data reported for challenge with methicillinsusceptible S. aureus strain

[9] = test system: methicillinsusceptible S. aureus strain ATCC 13709; assay: Challenge strain MIC; assay type: cell-based; conditions: Staphylococcus aureus, ATCC13709, S. aureus ATCC 13709; read-out: Challenge str MIC
Experimental: The compounds of the invention were evaluated against several β-lactamresistant bacteria strains by determining the minimum inhibitory concentration (MIC, μg/ml) of each compound with respect to each strain. The MIC, the lowest concentration of antibiotic which inhibits growth of the test organism, was determined by the agar dilution method.
To determine the MIC for bacterial isolates, the test compound was incorporated in a series of two-fold dilutions into liquified Mueller-Hinton agar. Upon solidification, a number of different bacterial strains were spot inoculated with a replicating device onto the agar surface. […] The procedures used in these studies have been standardized by the National Committee for Clinical Laboratory Standards (NCCLS), as per the NCCLS publication entitled METHODS FOR DILUTION ANTIMICROBIAL SUSCEPTIBILITY TESTS (1991), which is incorporated herein by reference.
Aliquots of antimicrobial agents were prepared in phosphate buffered saline (PBS) at pH 7.2. Tween 20 or DMSO was used as a solubilizing vehicle as needed. Standard methods of vortexing, sonicating and gentle heat were used to facilitate solubilizing the test agent. Typically, the concentration of the stock solution was 10× that of the highest drug concentration tested. A 1.28 mg/mL stock solution was used with a subsequent highest working concentration of 128 μg/mL. Serial two-fold dilutions were done through ≤0.25 μg/mL. Each drug level was tested in duplicate. Two-fold drug dilutions were done in sterile 50 mL tubes with a final drug volume of 5 mL. Upon the addition of 45 mL of molten agar, a 10-fold dilution resulted. Two, 25 mL. plates were then poured into 15×150 mm square Petri plates with grids and allowed to harden.
A control plate with a reference drug, either cefotaxime, vancomycin or imipenem, was used as the positive growth control. Stock concentrations of reference antibiotics were prepared and frozen at -80° C. Upon preparation, the control plates were sealed and stored in the refrigerator for up to 1 week prior to use; however, imipenem control plates had to be prepared just prior to use. All test plates were used within 24 hours of preparation.
Satisfactory results were obtained where the inoculum contained about 10^4 colony forming units (cfu) ±0.5 logs. Starting with pure cultures of the test isolates on agar plates, a few isolated colonies were transferred to a tube of nutrient broth and allowed to grow 4-6 hours at 35°-36° C. to reach log-phase growth. Dropwise addition of the broth culture to PBS was done to match a 0.5 McFarland turbidity standard equal to 10^8 cfu/mL. This was further diluted ten-fold in PBS to reach a working inoculum concentration of 10^7 cfu/mL. When 1 μL of the working inoculum was applied to the agar surface a concentration of about 10^4 cfu per spot was obtained.
Disposable sterile 1 μL loops were used to inoculate test plates, with each isolate in a designated grid on the agar plate. An alternate method of inoculation involved the use of a replica plater, a device with 48 steel pins allowing the simultaneous inoculation of multiple isolates. After the spots had dried, the plates were incubated at 35°-36° C. for 16-20 hours. Endpoints were assessed as the minimum inhibitory concentration (MIC) of antimicrobial agent.
as §2

[10] = test system: E. faecalis ATCC 29212; assay: In vitro antibacterial evaluation, MIC by agar dilution, E. faecalis ATCC 29212; assay type: cell-based; conditions: Enterococcus faecalis, ATCC29212
How it was run: as §1

[11] = test system: P. aeruginosa ATCC 27853; assay: In vitro antibacterial evaluation, MIC by agar dilution, P. aeruginosa ATCC 27853; assay type: cell-based; conditions: Pseudomonas aeruginosa, ATCC27853, read-out: MIC
How it was run: as §1

[12] = E. faecalis ATCC 29212, read-out: MIC
[13] = S. aureus ATCC 29213, read-out: MIC

| SMILES | MIC [1] [µg/mL] | MIC [2] [µg/mL] | MIC [3] [µg/mL] | MIC [4] [µg/mL] | MIC [5] [µg/mL] | MIC [6] [µg/mL] | MIC [7] [µg/mL] | ED50 [8] [mg/kg] | MIC [9] [µg/mL] | MIC [10, 12] [µg/mL] | MIC [11] [µg/mL] | MIC [1, 13] [µg/mL] | MIC [10] [µg/mL] |
| --- | --- | --- | --- | --- | --- | --- | --- | --- | --- | --- | --- | --- | --- |
| N#CCC(=O)N[C@@H]1C(=O)N2C(C(=O)O)=C(Sc3ccccc3I)CS[C@H]12 [Cmpd 17, (7R)-7-[(Cyanoacetyl)amino]-3-(o-iodophenylthio)-3-cephem-4-carboxylic acid] | < 0.25 | < 0.25 | 4 (≈ 7.98 µM) | < 0.25 | 8 (≈ 16 µM) | 1 (≈ 1.99 µM) | > 64 | 3.41 | 0.125 (≈ 0.249 µM) | – | – | – | – |
| O=C(CC1CC1)N[C@@H]1C(=O)N2C(C(=O)O)=C(Sc3ccnn3-c3ccccc3)CS[C@H]12 [Cmpd 107, (7R)-7-[(cyclopropylacetyl)amino]-3-(1-N-phenylpyrazol-5-ylthio)-3-cephem-4-carboxylic acid] | 0.25 (≈ 0.548 µM) | – | 16 (≈ 35 µM) | 0.25 (≈ 0.548 µM) | 32 (≈ 70.1 µM) | 8 (≈ 17.5 µM) | > 32 | 1.58 | 0.125 (≈ 0.274 µM) | 8 (≈ 17.5 µM) | > 32 | – | – |
| Nc1nc(/C(=N/OCC2CC2)C(=O)N[C@@H]2C(=O)N3C(C(=O)O)=C(Sc4ccnn4-c4ccccc4)CS[C@H]23)cs1 [Cmpd 108, (7R)-7-[(Z)-2-(2-aminothiazol-4-yl)-2-(cyclopropylmethyloxyimino)acetamido]-3-(1-N-phenylpyrazol-5-ylthio)-3-cephem-4-carboxylic acid] | – | – | 8 (≈ 13.4 µM) | 0.5 (≈ 0.837 µM) | 16 (≈ 26.8 µM) | 16 (≈ 26.8 µM) | 4 (≈ 6.69 µM) | > 10 | 0.5 (≈ 0.837 µM) | 16 (≈ 26.8 µM) | 16 (≈ 26.8 µM) | 0.5 (≈ 0.837 µM) | – |
| O=C(CSc1ccncc1)N[C@@H]1C(=O)N2C(C(=O)O)=C(Sc3ccnn3-c3ccccc3)CS[C@H]12 [Cmpd 110, (7R)-7-[(4-pyridylthioacetyl)amino]-3-(1-N-phenylpyrazol-5-ylthio)-3-cephem-4-carboxylic acid] | 0.25 (≈ 0.476 µM) | – | 8 (≈ 15.2 µM) | 0.25 (≈ 0.476 µM) | > 16 | 2 (≈ 3.8 µM) | > 32 | 3.45 | 0.25 (≈ 0.476 µM) | 2 (≈ 3.8 µM) | > 32 | – | – |
| O=C(O)C1=C(Sc2ccnn2-c2ccccc2)CS[C@@H]2[C@H](NC(=O)C3SCCS3)C(=O)N12 [Cmpd 115, (7R)-7-[(2-dithiolanylcarbonyl)amino]-3-(1-N-phenylpyrazol-5-ylthio)-3-cephem-4-carboxylic acid] | 0.25 (≈ 0.493 µM) | – | 8 (≈ 15.8 µM) | 0.25 (≈ 0.493 µM) | 32 (≈ 63.2 µM) | 8 (≈ 15.8 µM) | > 32 | 3.04 | 0.25 (≈ 0.493 µM) | 4 (≈ 7.89 µM) | > 32 | – | – |
| Cc1nnc(SCC(=O)N[C@@H]2C(=O)N3C(C(=O)O)=C(Sc4ccnn4-c4ccccc4)CS[C@H]23)s1 [Cmpd 118] | – | – | 8 (≈ 14.6 µM) | 0.125 (≈ 0.229 µM) | 32 (≈ 58.5 µM) | 4 (≈ 7.32 µM) | > 32 | 3.38 | 0.06 (≈ 0.11 µM) | 4 (≈ 7.32 µM) | > 32 | 0.25 (≈ 0.457 µM) | – |
| O=C(CSc1ccccc1)N[C@@H]1C(=O)N2C(C(=O)O)=C(Sc3ccnn3-c3ccccc3)CS[C@H]12 [Cmpd 119, (7R)-7-[(phenylthioacetyl)amino]-3-(1-N-phenylpyrazol-5-ylthio)-3-cephem-4-carboxylic acid] | – | – | 8 (≈ 15.2 µM) | 0.06 (≈ 0.114 µM) | 16 (≈ 30.5 µM) | 1 (≈ 1.91 µM) | > 32 | > 5 | 0.25 (≈ 0.477 µM) | 1 (≈ 1.91 µM) | > 32 | 0.125 (≈ 0.238 µM) | – |
| N#CCSCC(=O)N[C@@H]1C(=O)N2C(C(=O)O)=C(Sc3ccnn3-c3ccccc3)CS[C@H]12 [Cmpd 122, (7R)-7-[(cyanomethylthioacetyl)amino]-3-(1-N-phenylpyrazol-5-ylthio)-3-cephem-4-carboxylic acid] | 0.25 (≈ 0.513 µM) | – | 8 (≈ 16.4 µM) | 0.25 (≈ 0.513 µM) | 16 (≈ 32.8 µM) | 4 (≈ 8.2 µM) | > 32 | 1.13 | 0.125 (≈ 0.256 µM) | 4 (≈ 8.2 µM) | > 32 | – | – |
| O=C(O)C1=C(Sc2ccnn2-c2ccccc2)CS[C@@H]2[C@H](NC(=O)/C(=N\O)c3ccccc3)C(=O)N12 [Cmpd 130, (7R)-7-[(Z)-2-(Phenyl)-2-(hydroxyimino)acetamido]-3-(1-N-(phenyl)pyrazol-5-ylthio)-3-cephem-4-carboxylic acid] | – | – | 4 (≈ 7.67 µM) | 0.25 (≈ 0.479 µM) | 4 (≈ 7.67 µM) | 0.5 (≈ 0.959 µM) | > 32 | > 10 | 0.125 (≈ 0.24 µM) | – | > 32 | 0.125 (≈ 0.24 µM) | 0.25 (≈ 0.479 µM) |
